# Values joined by “and” are separate entries in the source; they are usually repeats but may differ in a detail not shown here. Equal entries are not always repeated. Where two headings read alike, the source gives them in different places.
# Assays:
# [1] = test system: Con1 (genotype 1b) bi-cistronic subgenomic replicon in Huh-7; assay: anti-HCV activity in Huh-7 subgenomic replicon, luciferase; type: cell-based; conditions: for EC50 / EC90 / IC50 / IC90: Hepatitis C virus; for EC50: corresponds to IC50 in μM, read-out: mean effective concentration EC50; for EC90: read-out: mean effective concentration EC90
# Protocol: The anti-HCV activity of SCY-635 was assessed in a human hepatoma cell line (Huh-7) that contains a Con1 (genotype 1b) bi-cistronic subgenomic replicon. The replicon contains a stable luciferase reporter gene and three cell culture adaptive mutations. The subgenomic replicon contains the 5′ terminus (which includes the HCV Internal Ribosomal Entry Site and the first few amino acids of the HCV core protein) which drives the production of the neomycin phosphotransferase protein. The EMCV IRES element directs the translation of the second cistronic unit that encodes the non-structural proteins NS3, NS4A, NS4B, NS5A, and NS5B. For comparative purposes HCV RNA replication was assessed by quantifying HCV replicon-derived luciferase activity and by quantifying HCV-specific RNA using reverse transcriptase-real time PCR. Duplicate plates were incubated with various concentrations of SCY-635 and were processed either for luciferase activity or for total RNA extraction at 24, 48, 72 and 120 hours after drug treatment. SCY-635 was tested at twelve half-log dilutions ranging from 0.00016 to 50 μM. Stock solutions of each test article were diluted into culture media and added to the plate. After a 72 hour incubation, cells were processed to determine luciferase luminescence as a measurement of antiviral activity. Three replicates were performed and mean values were calculated.
# [2] = cell cytotoxicity on replicon cells (LDH release, ribosomal RNA); conditions: human, replicon cells (Huh-7 background)
# Protocol: (§1) Cell cytotoxicity was assessed by measuring the release of lactate dehydrogenase from cell membranes and by measuring total ribosomal RNA. […] SCY-635 was assessed for cytotoxicity in primary human hepatocytes. […] SCY-635 was also assessed for cytotoxicity in primary human renal tubular epithelial cells.
# [3] = test system: replicon cells; assay: as above; conditions: replicon cells
# Protocol: as §1
# [4] = in vitro; conditions: human
# Protocol: as §1
# [5] = test system: Huh-7 cell line; assay: in vitro; conditions: Huh-7 cell line
# Protocol: as §1
# [6] = test system: primary human hepatocytes
# Protocol: as §1
# [7] = test system: primary human renal tubular epithelial cells
# Protocol: as §1
# [8] = test system: full length genotype 1b derived replicon in human hepatoma cell line; assay: anti-HCV activity in full length genotype 1b replicon, RT-PCR; type: cell-based; conditions: 72-hour incubation
# Protocol: (§2) The anti-HCV activity of SCY-635 was also assessed in a human hepatoma cell line that contains a full length genotype 1b derived replicon. Cells were processed following a 72-hour incubation at 37° C. Intracellular RNA from each well was extracted and the level of HCV-specific RNA was determined by reverse transcriptase-real time PCR. Cytotoxic effects were measured by assessing ribosomal RNA as an indication of total cell numbers.
# [9] = test system: human hepatoma cell line containing full length replicon; assay: cytotoxicity in full length replicon cells (ribosomal RNA); type: cell-based; conditions: concentrations up to 10 μM, 72-hour incubation
# Protocol: as §2
# [10] = test system: hepatitis C (subtype 1); assay: plasma HCV RNA viral load in HCV-infected subjects, 15-day t.i.d. study; type: in vivo, human; conditions: 15 days, per os
# Protocol: All human subjects were male (n=20); 75% were African American. Average age was 53.0 years. […] Viral load data from the study described in Example 4 above was measured by the quantitative Roche COBAS […] assay. The test measures HCV RNA in International Units (IU) per mL using real-time Polymerase Chain Reaction (RT-PCR) technology. […] All clinical viral load samples were assayed at LabCorp.
# [11] = human, in vivo
# Protocol: SCY-635 (given as oral capsules as described in Example 3 above) was examined in a randomized, double-blind, placebo-controlled, multi-dose study to adult volunteers who are chronically infected with hepatitis C (subtype 1). Three cohorts received 100, 200 or 300 milligrams of SCY-635 three times per day (100 mg, 200 mg or 300 mg t.i.d., respectively) per os for 15 consecutive days. The 100 mg t.i.d. cohort was comprised of 7 human subjects (1 placebo and 6 active); the 200 mg t.i.d. cohort was comprised of 6 human subjects (1 placebo and 5 active); and the 300 mg t.i.d. cohort was comprised of 7 human subjects (1 placebo and 6 active).
# All human subjects were male (n=20); 75% were African American. Average age was 53.0 years. Average HCV RNA plasma viremia on enrollment was 5,600,000 IU/ml, as measured by the quantitative Roche COBAS taqMan assay. 55% of human subjects were treatment naïve.
# [12] = single dose pharmacokinetic study in healthy volunteers; conditions: human, in vivo, 400 mg single dose (capsules), read-out: Mean SCY-635 Plasma Concentration
# Protocol: Blood samples were collected from human subjects during the 72-hour interval immediately following administration of a single dose of SCY-635. […] Concentrations of SCY-635 in human blood and plasma samples from the study described in this Example were determined using validated high pressure liquid chromatography/tandem mass spectrometric (HPLC-MS/MS) methods with assay ranges of 50 to 5000 ng/mL for whole blood and 15 to 2000 ng/mL for plasma. The table below summarizes the results obtained (“BLOQ” means below the limit of quantitation).
# [13] = human, in vivo; remark: listed apart in the source
# Description: SCY-635 (given as oral capsules [400 milligram dose] or tablets [500 and 600 milligram doses] as described in Example 3 above) was examined in a randomized, double-blind, placebo-controlled, pharmacokinetic study in normal healthy adult volunteers. Three cohorts received a single dose of either 400, 500 or 600 milligrams of SCY-635. Each cohort was comprised of 8 human subjects (2 placebo and 6 active). Blood samples were collected from human subjects during the 72-hour interval immediately following administration of a single dose of SCY-635.
# [14] = 500 mg b.i.d. 14-day pharmacokinetic study in healthy volunteers; conditions: human, in vivo, 264 h post first dose, read-out: Mean SCY-635 Plasma Concentration
# Description: SCY-635 (given as oral tablets as described in Example 3 above) was examined in a double-blind, placebo-controlled, pharmacokinetic study in normal healthy adult volunteers. […] On Day 14, only the morning dose of drug was given and blood samples were collected during the 72-hour interval immediately following administration of the final dose. In addition, blood samples for the measurement of trough drug concentrations were collected from the subjects immediately prior to the administration of SCY-635 on the mornings of Days 2-6 and 8-13. […] Concentrations of SCY-635 in human blood and plasma samples from the two subjects were determined using validated high pressure liquid chromatography/tandem mass spectrometric (HPLC-MS/MS) methods with assay ranges of 50 to 5000 ng/mL for whole blood and 15 to 2000 ng/mL for plasma.
# [15] = human, in vivo; remark: listed apart in the source
# Description: SCY-635 (given as oral tablets as described in Example 3 above) was examined in a double-blind, placebo-controlled, pharmacokinetic study in normal healthy adult volunteers. […] On Day 14, only the morning dose of drug was given and blood samples were collected during the 72-hour interval immediately following administration of the final dose. In addition, blood samples for the measurement of trough drug concentrations were collected from the subjects immediately prior to the administration of SCY-635 on the mornings of Days 2-6 and 8-13.
# [16] = test system: HCV-specific RNA replication; conditions: subgenomic and full length replicon systems; cited from earlier work
# [17] = molecular target: T1, cyclophilin A (Homo sapiens, UniProt P62937); conditions: in vitro studies; cited from earlier work
# [18] = molecular target: T1, cyclophilin A; conditions: in vitro studies; cited from earlier work; remark: listed apart in the source
# [19] = Huh-7, by inspection of the curves
# [20] = linear regression, 72 hour incubation, luciferase
# T1 sequence (P62937 whole entry): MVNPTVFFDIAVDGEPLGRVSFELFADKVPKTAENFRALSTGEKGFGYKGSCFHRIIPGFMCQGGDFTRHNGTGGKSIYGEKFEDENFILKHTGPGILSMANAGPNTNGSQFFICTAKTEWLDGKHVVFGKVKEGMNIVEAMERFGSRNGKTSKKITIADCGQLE
smiles,measurement,setting,value
"C/C=C/C[C@@H](C)[C@@H](O)[C@H]1C(=O)N[C@@H](CC)C(=O)N(C)[C@H](SCCN(C)C)C(=O)N(C)[C@@H](CC(C)(C)O)C(=O)N[C@@H](C(C)C)C(=O)N(C)[C@@H](CC(C)C)C(=O)N[C@@H](C)C(=O)N[C@H](C)C(=O)N(C)[C@@H](CC(C)C)C(=O)N(C)[C@@H](CC(C)C)C(=O)N(C)[C@@H](C(C)C)C(=O)N1C [SCY-635, 3-[(R)-2-(N,N-dimethylamino)ethylthio-Sar]-4-(gammahydroxymethylleucine)cyclosporine]",EC50,[1]; [19],0.107 µg/mL
same,EC50,"[1]; Huh-7, linear regression",0.121 µg/mL
same,EC90,"[1]; Huh-7, linear regression, corresponds to IC90 in μM",0.501 µg/mL
same,IC50,"[1]; Huh-7, by inspection of the curves, 72 hour incubation, luciferase, read-out: mean IC50 (HCV replication)",81 nM
same,IC90,"[1]; Huh-7, by inspection of the curves, read-out: mean IC90 (HCV replication)",333 nM
same,EC90,[1]; [19],0.441 µg/mL
same,IC50,"[1]; Huh-7, linear regression, 72 hour incubation, luciferase, read-out: mean calculated IC50 (HCV replication)",91 nM
same,IC90,"[1]; Huh-7, linear regression, 72 hour incubation, luciferase, read-out: mean calculated IC90 (HCV replication)",397 nM
same,mean IC75 (HCV replication),[1]; by inspection of the curves,165 nM
same,mean IC95 (HCV replication),[1]; by inspection of the curves,410 nM
same,mean IC98 (HCV replication),[1]; by inspection of the curves,0.500 µM
same,mean effective concentration EC75,[1]; by inspection of the curves,0.217 µg/mL
same,mean effective concentration EC95,[1]; by inspection of the curves,0.542 µg/mL
same,mean effective concentration EC98,[1]; by inspection of the curves,661 ng/mL
same,mean effective concentration EC99,[1]; by inspection of the curves,2088 ng/mL
same,sixth IC value of the list (not named; matches EC99),[1]; by inspection of the curves,1.580 µM
same,mean calculated IC75 (HCV replication),[1]; [20],200 nM
same,mean calculated IC95 (HCV replication),[1]; [20],455 nM
same,mean effective concentration EC75,"[1]; linear regression, corresponds to IC75 in μM",0.264 µg/mL
same,mean effective concentration EC95,"[1]; linear regression, corresponds to IC95 in μM",0.601 µg/mL
same,CC50 at 72 h,[2],14200 nM
same,selectivity index (CC50/IC50),[3],129.0
same,cell cytotoxicity,"[3]; 72-hour incubation, concentrations up to and including 5 μM",No significant cell cytotoxicity
same,CC50 at 72 h,[4],13700 nM
same,selectivity index (CC50/IC50),[5],124.5
same,50% inhibitory concentration for cell viability,"[6]; human, 48 h",33 µM
same,selectivity index,[6]; primary human hepatocytes,approximately 300
same,50% inhibitory concentration for cell viability,[7],60.6 µM
same,EC50,"[8]; 3 independent experiments, single values, read-out: EC50 (HCV-specific RNA)",160 nM and 210 nM
same,EC90,"[8]; 3 independent experiments, single values, read-out: EC90 (HCV-specific RNA)",710 nM and 790 nM
same,EC50,"[8]; Hepatitis C virus, 72 h, 3 independent experiments, single values, read-out: EC50 (HCV-specific RNA)",130 nM
same,EC90,"[8]; Hepatitis C virus, 72 h, 3 independent experiments, single values, read-out: EC90 (HCV-specific RNA)",570 nM
same,EC50,"[8]; Hepatitis C virus, 72 h, mean of 3 experiments, read-out: mean EC50 (HCV-specific RNA)",170 nM
same,EC90,"[8]; Hepatitis C virus, 72 h, mean of 3 experiments, read-out: mean EC90 (HCV-specific RNA)",690 nM
same,cell cytotoxicity,[9],absence of significant cell cytotoxicity
same,mean nadir value of plasma HCV RNA below baseline,[10]; 100 mg t.i.d.,less than 0.5 log10
same,median nadir value of plasma HCV RNA below baseline,[10]; 100 mg t.i.d.,less than 0.5 log10
same,mean nadir value of plasma HCV RNA below baseline,[10]; 200 mg t.i.d.,less than 0.5 log10
same,median nadir value of plasma HCV RNA below baseline,[10]; 200 mg t.i.d.,less than 0.5 log10
same,group mean nadir value of plasma HCV RNA below baseline,[10]; 300 mg t.i.d.,2.33 log10
same,group median nadir value of plasma HCV RNA below baseline,[10]; 300 mg t.i.d.,1.90 log10
same,dose limiting toxicity,[11],no evidence of a dose limiting toxicity
same,concentration at 8 h,[12],107 ng/mL
same,dose limiting toxicity,[13],no evidence of a dose limiting toxicity
same,concentration at 264 h,[14],411 ng/mL
same,dose limiting toxicity,[15],no evidence of a dose limiting toxicity
same,inhibition of HCV-specific RNA replication,[16],potent and selective inhibition
same,binding to cyclophilin A,[17],capable of binding to cyclophilin A
same,inhibition of peptidyl prolyl isomerase activity of cyclophilin A,[18],inhibiting its intrinsic peptidyl prolyl isomerase activity

# From patent publication US20100173837A1, “DOSING FORMS AND REGIMENS COMPRISING 3-[(R)-2-(N,N-DIMETHYLAMINO)ETHYLTHIO-SAR]-4-(GAMMAHYDROXYMETHYLLEUCINE)CYCLOSPORINE” (priority 2009, published 2010)
